In patent US10472346B2, “Potent gamma-secretase modulators” (The General Hospital Coporation, priority 2014, dated 2019):
Entries after “also recorded” stand apart in the source; their conditions may differ.

Assays:
[1] = tested on: Aβ42; test: Aβ42 IC50 assay (SHSYSY-APP cell-based screening, UCSD sandwich Aβ42 ELISA)
Description: FIG. 8: Representative concentration response curves of Compound 1 using our primary and orthogonal medium throughput SHSYSY-APP cell-based screening assays (10). Compounds are first screened two times in triplicate in our UCSD sandwich Aβ42 ELISA on sequential days and the average of the two assays must be within 3-fold of each other before being entered into the CDD relational database. The UCSD sandwich ELISA assay can easily handle 20 compounds per week. Compounds with Aβ42 IC50 values <100 nM continue through the testing funnel. The Z′ score and the % CV for the UCSD Aβ42 sandwich ELISA assay are 0.8 and 4, respectively. For the Meso Scale triplex assay the Z′ scores are 0.7, 0.9 and 0.6 Aβ42, Aβ40 and Aβ38, respectively and the % CV's are 7, 2 and 1 for Aβ42, Aβ40 and Aβ38, respectively. Aβ total peptides are measured using a sandwich ELISA.
Tabular Results of A1142 Assays Conducted on Compounds of Examples 5-102. Assays are Aβ42 IC50 (nM).

[2] = tested on: Notch processing; test: Notch processing in transfected H4-APP751 cells (Western blot, Myc antibody, NICD); format: cell-based, human; details: 24 hrs; for Notch processing (NICD levels, Western blot): H4-APP751 cells transfected with the Notch NδED construct, 40 nM, 200 nM, 1000 nM, and 5000 nM
Description: Cells were harvested 48 hrs post transfection and applied to Western blotting analysis. Myc antibody was utilized to assess the NAED and NICD tagged with Myc on their N-termini. β-Actin was utilized as the loading control.
Cells were harvested 48 hrs post transfection and subjected to Western blotting analysis. Myc antibody was utilized to assess the NδED and NICD tagged with Myc on their N-termini.
Stable H4 human neuroglioma cells over-expressing human APP751, or H4-APP751 cells, were transfected with the NAE construct, and then treated with different concentrations SGSM Compound 1 (Lanes 1-6) or DAPT (Lanes 7-10) for another 24 hrs and are shown in FIG. 9. Cells were harvested 48 hrs post transfection and applied to Western blotting analysis. Myc antibody was utilized to assess the NAED and NICD tagged with Myc on their N-termini β-Actin was utilized as the loading control.
Stably-transfected H4 human neuroglioma cells over-expressing human APP751 (H4-APP751) cells, were transfected with the Notch NδED construct, and then treated with vehicle, or different doses of GSMs (40 nM, 200 nM, 1000 nM, and 5000 nM) for 24 hrs. Cells were harvested 48 hrs post transfection and subjected to Western blotting analysis.

`COc1nc(-c2cc(C)c(N[C@@H]3C[C@H]3c3ccccc3)nn2)ccc1-n1cnc(C)c1` (racemic) [Example 72, (+/−)-trans-6-(6-methoxy-5-(4-methyl-1H-imidazol-1-yl)pyridin-2-yl)-4-methyl-N-(2-phenylcyclopropyl)pyridazin-3-amine] gave a melting point of 99 to 102 °C and an IC50 [1] of 7.1 nM.

For `COc1nc(-c2ccc(N[C@@H](C)c3ccc(F)cc3)nn2)ccc1-n1cnc(C)c1` [Compound 2, (S)—N-(1-(4-Fluorophenyl)ethyl)-6-(6-methoxy-5-(4-methyl-1H-imidazol-1-yl)pyridin-2-yl)pyridazin-3-amine], the melting point was 96 to 102 °C.

In the case of `C[C@H](NC(=O)Cc1cc(F)cc(F)c1)C(=O)N[C@H](C(=O)OC(C)(C)C)c1ccccc1` [DAPT, reference compound], the “Notch processing (NICD, Western blot)” value ([2]; H4-APP751 cells transfected with the NAE construct, different concentrations) is reported as “significantly inhibits Notch processing” and the “Notch processing (NICD levels, Western blot)” value [2] is reported as “significantly inhibits Notch processing”.

For `COc1nc(-c2cc(C(C)C)c(NCc3ccc(F)cc3)nn2)ccc1-n1cnc(C)c1` [Example 13, N-(4-fluorobenzyl)-4-isopropyl-6-(6-methoxy-5-(4-methyl-1H-imidazol-1-yl)pyridin-2-yl)pyridazin-3-amine], the melting point was 245 to 246 °C and the IC50 [1] was 21 nM.

With `COc1nc(-c2ccc(N)nn2)ccc1-n1cnc(C)c1` [Example 24A, 6-(6-Methoxy-5-(4-methyl-1H-imidazol-1-yl)pyridin-2-yl)pyridazin-3-amine] the melting point was greater than 250 °C.

`COc1nc(-c2ccc(NC(=O)c3ccc(F)cc3)nn2)ccc1-n1cnc(C)c1` [Example 24B, 4-Fluoro-N-(6-(6-methoxy-5-(4-methyl-1H-imidazol-1-yl)pyridin-2-yl)pyridazin-3-yl)benzamide] gave a melting point greater than 250 °C and an IC50 [1] greater than 10000 nM.

In the case of `COc1nc(-c2ccc(NCc3ccc(F)cc3)nn2)ccc1-n1cnc(C)c1` [Example 26, N-(4-fluorobenzyl)-6-(6-methoxy-5-(4-methyl-1H-imidazol-1-yl)pyridin-2-yl)pyridazin-3-amine], the melting point is reported as 170 to 172 °C and the IC50 [1] is reported as 36 nM.

Work on `COc1nc(-c2nnc(N[C@@H](C)c3ccccc3)cc2C)ccc1-n1cnc(C)c1` [Example 28, (S)-6-(6-methoxy-5-(4-methyl-1H-imidazol-1-yl)pyridin-2-yl)-5-methyl-N-(1-phenylethyl)pyridazin-3-amine] yielded a melting point of 140 to 143 °C and an IC50 [1] of 18 nM.

With `COc1nc(-c2cc(C)c(N[C@@H](C)c3ccccc3F)nn2)ccc1-n1cnc(C)c1` [Example 34, (S)—N-(1-(2-fluorophenyl)ethyl)-6-(6-methoxy-5-(4-methyl-1H-imidazol-1-yl)pyridin-2-yl)-4-methylpyridazin-3-amine] the IC50 [1] was 4.3 nM and the “Notch processing (NICD levels, Western blot)” value [2] was “did not decrease the NICD levels at all concentrations studied; also recorded: not inhibit Notch processing”.

With `COc1nc(-c2cc(C)c(N[C@@H](C)c3ccc(F)cc3F)nn2)ccc1-n1cnc(C)c1` [Example 45, (S)—N-(1-(2,4-difluorophenyl)ethyl)-6-(6-methoxy-5-(4-methyl-1H-imidazol-1-yl)pyridin-2-yl)-4-methylpyridazin-3-amine] the IC50 [1] was 2.5 nM and the “Notch processing (NICD levels, Western blot)” value [2] was “did not decrease the NICD levels at all concentrations studied; also recorded: not inhibit Notch processing”.

With `COc1nc(-c2cc(C)c(N[C@@H](C)c3cc(F)cc(F)c3)nn2)ccc1-n1cnc(C)c1` [Example 46, (S)—N-(1-(3,5-difluorophenyl)ethyl)-6-(6-methoxy-5-(4-methyl-1H-imidazol-1-yl)pyridin-2-yl)-4-methylpyridazin-3-amine] the IC50 [1] was 4.1 nM and the “Notch processing (NICD levels, Western blot)” value [2] was “did not decrease the NICD levels at all concentrations studied; also recorded: not inhibit Notch processing”.

`COc1nc(-c2cc(C)c(NCCc3ccc(F)cc3)nn2)ccc1-n1cnc(C)c1` [Example 50, N-(4-fluorophenethyl)-6-(6-methoxy-5-(4-methyl-1H-imidazol-1-yl)pyridin-2-yl)-4-methylpyridazin-3-amine] gave a melting point of 204 to 206 °C and an IC50 [1] of 38 nM.

Work on `COc1nc(-c2cc(C)c(NC(C)C)nn2)ccc1-n1cnc(C)c1` [Example 65, N-isopropyl-6-(6-methoxy-5-(4-methyl-1H-imidazol-1-yl)pyridin-2-yl)-4-methylpyridazin-3-amine] yielded a melting point of 228 to 229 °C and an IC50 [1] of 188 nM.

`COc1nc(-c2cc(C)c(NCCCc3ccc(F)cc3)nn2)ccc1-n1cnc(C)c1` [Example 73, N-(3-(4-fluorophenyl)propyl)-6-(6-methoxy-5-(4-methyl-1H-imidazol-1-yl)pyridin-2-yl)-4-methylpyridazin-3-amine] gave a melting point of 204 to 206 °C and an IC50 [1] of 26 nM.

With `CC[C@H](Nc1nnc(-c2ccc(-n3cnc(C)c3)c(OC)n2)cc1C)c1ccc(C#N)cc1` [Example 84, (S)-4-(1-((6-(6-methoxy-5-(4-methyl-1H-imidazol-1-yl)pyridin-2-yl)-4-methylpyridazin-3-yl)amino)propyl)benzonitrile] the IC50 [1] was 23 nM.

Compound `COc1nc(-c2cc(C)c(NC3CCC(F)(F)CC3)nn2)ccc1-n1cnc(C)c1` [Example 85, N-(4,4-difluorocyclohexyl)-6-(6-methoxy-5-(4-methyl-1H-imidazol-1-yl)pyridin-2-yl)-4-methyl pyridazin-3-amine] has an IC50 [1] of 70 nM.

With `CCC[C@H](Nc1nnc(-c2ccc(-n3cnc(C)c3)c(OC)n2)cc1C)c1ccccc1F` [Example 86, (S)—N-(1-(2-fluorophenyl)butyl)-6-(6-methoxy-5-(4-methyl-1H-imidazol-1-yl)pyridin-2-yl)-4-methylpyridazin-3-amine] the IC50 [1] was 4.5 nM.

Work on `COC[C@H](Nc1nnc(-c2ccc(-n3cnc(C)c3)c(OC)n2)cc1C)c1ccc(F)cc1` [Example 87, (R)—N-(1-(4-fluorophenyl)-2-methoxyethyl)-6-(6-methoxy-5-(4-methyl-1H-imidazol-1-yl)pyridin-2-yl)-4-methylpyridazin-3-amine] yielded an IC50 [1] of 11.5 nM.

With `CC[C@H](Nc1nnc(-c2ccc(-n3cnc(C)c3)c(OC)n2)cc1C)c1ccccc1F` [Example 88, (S)—N-(1-(2-fluorophenyl)propyl)-6-(6-methoxy-5-(4-methyl-1H-imidazol-1-yl)pyridin-2-yl)-4-methylpyridazin-3-amine] the IC50 [1] was 12 nM.

For `COc1nc(-c2cc(C)c(N[C@@H](C)c3cccc(C)c3C)nn2)ccc1-n1cnc(C)c1` [Example 100, (S)—N-(1-(2,3-dimethylphenyl)ethyl)-6-(6-methoxy-5-(4-methyl-1H-imidazol-1-yl)pyridin-2-yl)-4-methylpyridazin-3-amine], the IC50 [1] was 4 nM.

Work on `COc1nc(-c2cc(C)c(N[C@@H](C)c3cccc(C(F)(F)F)c3F)nn2)ccc1-n1cnc(C)c1` [Example 101, (S)—N-(1-(2-fluoro-3-(trifluoromethyl)phenyl)ethyl)-6-(6-methoxy-5-(4-methyl-1H-imidazol-1-yl)pyridin-2-yl)-4-methylpyridazin-3-amine] yielded an IC50 [1] of 5 nM.

In the case of `COc1nc(-c2cc(C)c(N[C@H](c3ccc(F)cc3)C(C)(C)O)nn2)ccc1-n1cnc(C)c1` [Example 102, (R)-1-(4-fluorophenyl)-1-((6-(6-methoxy-5-(4-methyl-1H-imidazol-1-yl)pyridin-2-yl)-4-methylpyridazin-3-yl)amino)-2-methylpropan-2-ol], the IC50 [1] is reported as 6 nM.

For `COc1nc(-c2cc(C)c(N[C@H](C)c3ccc(F)cc3Cl)nn2)ccc1-n1cnc(C)c1` [Example 103, (R)—N-(1-(2-chloro-4-fluorophenyl)ethyl)-6-(6-methoxy-5-(4-methyl-1H-imidazol-1-yl)pyridin-2-yl)-4-methylpyridazin-3-amine], the IC50 [1] was 13 nM.
